“And” between values parts separate entries of the source, which are not always exact repeats. Equal values may be shown once. Read-outs that look alike come from different tables or passages of the source.
Columns and labels:
D2 dopamine receptor = experiment: D2 binding affinity from journal publications (Schneider & Mierau 1987; Wong & Shrikhande 2003); conditions: range over the literature sources
minipigs [1] = conditions: 6-month study, any dose level
healthy adult volunteers [2] = tested on: healthy adult volunteers
Procedure: (§3) The first panel was administered a single IR dose of 50 mg, followed 48 hours later by 4½ days of multiple IR dosing (twice daily) at 50 mg Q12 hours. The second panel was administered a single IR dose of 100 mg, followed 48 hours later by 4½ days of multiple IR dosing (twice daily) at 100 mg Q12 hours. Safety observations included vital signs, physical examination, clinical laboratory tests, ECGs, and adverse event reporting. Blood samples were collected pre-dose on Day 1 and serially for 48 hours post-dose to assess the single-dose pharmacokinetics.

minipigs [3] = conditions: past month 7, any dose level
rats [4] = tested on: rats
Procedure: 3.3—Toxicology Studies. […] Following this study, 3- and 6-month repeat dose toxicology studies were completed at doses of 30, 100, and 300 mg/kg.

clinical [5] = conditions: human, oral, Fasted; for Cmax: mean ± SD; for Tmax: median
Procedure: as §3

D5 dopamine receptor = D5 dopamine receptor (Homo sapiens, UniProt P21918); conditions: literature and own data
Sequence of D5 dopamine receptor (P21918 whole entry): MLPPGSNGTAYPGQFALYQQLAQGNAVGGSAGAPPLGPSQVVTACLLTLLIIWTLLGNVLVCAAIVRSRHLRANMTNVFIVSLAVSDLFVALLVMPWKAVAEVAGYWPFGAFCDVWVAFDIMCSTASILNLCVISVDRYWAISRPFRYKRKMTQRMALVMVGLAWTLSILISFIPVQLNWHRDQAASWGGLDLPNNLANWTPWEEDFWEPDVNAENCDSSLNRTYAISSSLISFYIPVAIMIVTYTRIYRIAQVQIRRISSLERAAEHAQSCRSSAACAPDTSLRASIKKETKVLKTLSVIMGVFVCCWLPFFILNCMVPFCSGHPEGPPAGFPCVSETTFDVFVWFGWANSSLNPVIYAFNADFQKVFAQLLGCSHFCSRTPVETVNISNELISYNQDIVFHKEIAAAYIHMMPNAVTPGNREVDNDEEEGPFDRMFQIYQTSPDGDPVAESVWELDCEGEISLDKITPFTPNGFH
Procedure: (§1) These concentrations were tested in cell lines expressing select human cloned dopamine receptors (D2S, D3).

D1 dopamine receptor = D1 dopamine receptor (Homo sapiens, UniProt P21728); conditions: literature and own data
Sequence of D1 dopamine receptor (P21728 whole entry): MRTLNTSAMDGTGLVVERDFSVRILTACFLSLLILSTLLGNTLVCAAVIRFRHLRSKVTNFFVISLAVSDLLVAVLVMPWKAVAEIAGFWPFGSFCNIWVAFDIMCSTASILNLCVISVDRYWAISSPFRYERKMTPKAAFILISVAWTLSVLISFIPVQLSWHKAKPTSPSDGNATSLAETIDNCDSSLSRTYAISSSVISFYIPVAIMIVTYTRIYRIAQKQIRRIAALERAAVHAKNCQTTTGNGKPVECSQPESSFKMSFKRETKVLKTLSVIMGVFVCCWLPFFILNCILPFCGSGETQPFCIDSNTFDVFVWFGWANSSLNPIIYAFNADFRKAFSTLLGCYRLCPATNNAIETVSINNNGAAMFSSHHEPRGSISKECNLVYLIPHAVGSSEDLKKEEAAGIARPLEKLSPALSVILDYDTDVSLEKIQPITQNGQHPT
Procedure: as §1

minipigs [6] = conditions: both, minipig, in vivo, 14 days
Procedure: (§4) The 3- and 6-month repeat dose studies have now been completed at the 7.5, 25 and 50 mg/kg dose levels and the 9-month repeat dose study is ongoing.

[7] = molecular target: human cloned dopamine receptors (D3) (Homo sapiens, UniProt P35462); experiment: biochemical
Sequence of human cloned dopamine receptors (D3) (P35462 whole entry): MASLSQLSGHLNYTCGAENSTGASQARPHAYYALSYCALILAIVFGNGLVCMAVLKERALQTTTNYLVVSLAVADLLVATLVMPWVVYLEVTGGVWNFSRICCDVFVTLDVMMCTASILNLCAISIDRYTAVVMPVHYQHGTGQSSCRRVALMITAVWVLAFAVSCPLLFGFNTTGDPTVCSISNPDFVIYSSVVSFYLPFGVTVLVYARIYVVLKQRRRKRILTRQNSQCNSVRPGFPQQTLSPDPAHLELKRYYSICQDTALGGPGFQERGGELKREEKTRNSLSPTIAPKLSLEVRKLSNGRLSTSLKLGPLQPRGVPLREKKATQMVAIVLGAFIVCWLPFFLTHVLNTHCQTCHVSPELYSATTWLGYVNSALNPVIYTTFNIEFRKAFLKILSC
Procedure: as §1

in vivo = conditions: both, minipig
Procedure: as §4

rats [8] = conditions: 6-month study, any dose level
[9] = tested on: non-naïve male beagle dogs
Procedure: Doses were administered orally by gavage and clinical observations were taken continuously following dosing: hourly for the first four hours, and then twice daily cage-side observations for the duration of the inter-dose or post-dose interval. Observations were made of clinical signs, mortality, injury and availability of food and water. Animals were fasted for 24 hr prior to dosing. Dogs in each group were exposed to only one drug, or the combination; each dose was administered only once, with a subsequent dose administered after a recovery period of 4 days.

minipigs [10] = tested on: minipigs
healthy adult volunteers [11] = experiment: clinical; conditions: for CL/F / Ue / Fe / λZ: mean ± SD
Procedure: (§2) Safety observations included vital signs, physical examination, clinical laboratory tests, ECGs, and adverse event reporting. Blood and urine samples were collected pre-dose and for 72 hours post-dose to assess the pharmacokinetics.

clinical [12] = conditions: human, blood, oral
Procedure: as §2

[13] = CL002, 50 mg Q12H (Day 1), Fasted, mean ± SD
[14] = CL002, 50 mg Q12H (Day 7), Fasted, mean ± SD
[15] = CL002, 100 mg Q12H (Day 1), Fasted, mean ± SD
[16] = CL002, 100 mg Q12H (Day 7), Fasted, mean ± SD
[17] = Day 1, 50 mg IR oral, fasted, mean ± SD
[18] = Day 1, 100 mg IR oral, fasted, mean ± SD
[19] = Day 7, 50 mg after Q12H Days 3-6, fasted, mean ± SD
[20] = Day 7, 100 mg after Q12H Days 3-6, fasted, mean ± SD
[21] = blood, 50 mg, CL002, 50 mg Q12H (Day 1)
[22] = blood, 50 mg, CL002, 50 mg Q12H (Day 7)
[23] = in vivo, 100 mg, CL002, 100 mg Q12H (Day 1)
[24] = in vivo, 100 mg, CL002, 100 mg Q12H (Day 7)

CCCN[C@@H]1CCc2nc(N)sc2C1 [RPPX, (6R)-4,5,6,7-tetrahydro-N6-propyl-2,6-benzothiazole-diamine]
binding affinity of RPPX at the D2 receptor, times lower than PPX, literature (D2 dopamine receptor): 10-20 times and 9-21 times
mortality / clinical observations between the 13-week and 26-week sacrifices, minipigs (minipigs [1]): no mortalities attributed to test article or significant clinical observations
increase of AUC(0-12) from Day 1 to Day 7 (healthy adult volunteers [2]; 50 mg Q12H): 40%
increase of Cmax from Day 1 to Day 7 (healthy adult volunteers [2]; 50 mg Q12H): 37%
increase of AUC(0-12) from Day 1 to Day 7 (healthy adult volunteers [2]; 100 mg Q12H): 38%
increase of Cmax from Day 1 to Day 7 (healthy adult volunteers [2]; 100 mg Q12H): 24%
AUC (inf) (healthy adult volunteers [2]; [13]): 1,502 ± 280 h*ng/mL
AUC(0-t) (healthy adult volunteers [2]; [13]): 1,463 ± 280 h*ng/mL
AUC(0−12) (healthy adult volunteers [2]; [13]): 1,035 ± 121 h*ng/mL
CL/F (healthy adult volunteers [2]; [13]): 571 ± 107 mL/h
AUC(0−12) (healthy adult volunteers [2]; [14]): 1,449 ± 221 h*ng/mL
CL/F (healthy adult volunteers [2]; [14]): 585 ± 81.6 mL/h
AUC(0-t) (healthy adult volunteers [2]; [15]): 2,545 ± 497 h*ng/mL
AUC(0−12) (healthy adult volunteers [2]; [15]): 1,776 ± 260 h*ng/mL
CL/F (healthy adult volunteers [2]; [15]): 665 ± 107 mL/h
AUC(0−12) (healthy adult volunteers [2]; [16]): 2,465 ± 299 h*ng/mL
CL/F (healthy adult volunteers [2]; [16]): 684 ± 76.1 mL/h
CL/F (healthy adult volunteers [2]; [17]): 571 ± 107 (6) mL/min
λz (healthy adult volunteers [2]; [17]): 0.1132 ± 0.0230 (6) h^−1
CL/F (healthy adult volunteers [2]; [18]): 665 ± 107 (6) mL/min
λz (healthy adult volunteers [2]; [18]): 0.1073 ± 0.0161 (6) h^−1
CL/F (healthy adult volunteers [2]; [19]): 585 ± 81.6 (6) mL/min
λz (healthy adult volunteers [2]; [19]): 0.1025 ± 0.0186 (6) h^−1
CL/F (healthy adult volunteers [2]; [20]): 684 ± 76.1 (6) mL/min
λz (healthy adult volunteers [2]; [20]): 0.0894 ± 0.0117 (6) h^−1
deaths / clinical observations, 9-month study in minipigs (minipigs [3]): no deaths attributed to test article or significant clinical observations
target organ toxicity by histopathology, 3-month study in rats (rats [4]; both, rat, in vivo, 300 mg/kg, 3 months): some target organ toxicity
target organ toxicity by histopathology, 2-week study in rats (rats [4]; both, rat, in vivo, 14 days): No target organ toxicity
mortality, 2-week study in rats (rats [4]; high dose of 500 mg/kg): caused mortality
Cmax (clinical [5]; [21]): 139 ± 15.3 ng/mL
Cmax (clinical [5]; [22]): 191 ± 20.9 ng/mL
Tmax (clinical [5]; [21]): 1.83 h
Tmax (clinical [5]; [22]): 1.75 h
Cmax (clinical [5]; [23]): 248 ± 30.4 ng/mL
Cmax (clinical [5]; [24]): 306 ± 55 ng/mL
Tmax (clinical [5]; [23]): 1.92 h
Tmax (clinical [5]; [24]): 2 h
interaction with D5 dopamine receptors (D5 dopamine receptor): no significant interaction
interaction with D1 dopamine receptors (D1 dopamine receptor): no significant interaction
target organ toxicity by histopathology, 2-week study in minipigs (minipigs [6]): No target organ toxicity
IC50 [7]: 610 nM
NOAEL at 14 days (in vivo): ≥ 75 mg/kg
mortality between the 13-week and 26-week sacrifices, rats (rats [8]): no mortalities at any dose level
human equivalence dose of the dog MTD, for a 70 kg human subject ([9]; from dog data): about 3,000 mg
observable effects in dogs ([9]; male, beagle, dog, in vivo, 4 days): no observable effects
mortality in repeat dose studies in minipigs (minipigs [10]; 75 mg/kg level, by month 2): mortalities
target organ toxicity by histopathology after 3 months, minipigs (minipigs [10]; both, minipig, in vivo, 3 months): No target organ toxicity
CL/F (healthy adult volunteers [11]; CL001, 50 mg SD, Fasted): 706 ± 182 mL/h
Ue (healthy adult volunteers [11]; CL001, 50 mg SD, Fasted): 35.3 ± 5.19 ^ mg
CL/F (healthy adult volunteers [11]; CL001, 150 mg SD, Fasted): 692 ± 183 mL/h
Ue (healthy adult volunteers [11]; CL001, 150 mg SD, Fasted): 60.5 ± 7.04 ^ mg
CL/F (healthy adult volunteers [11]; CL001, 150 mg SD, second 150 mg line, Food printed Fasted): 774 ± 165 mL/h
CL/F (healthy adult volunteers [11]; CL001, 300 mg SD, Fasted): 659 ± 260 mL/h
Ue (healthy adult volunteers [11]; CL001, 300 mg SD, Fasted): 198 ± 28.0 ^ mg
Urinary excretion of unchanged drug, share of drug elimination (healthy adult volunteers [11]; across dose levels): approximately 70%
subjects reporting at least one non-serious adverse event (healthy adult volunteers [11]; all 24 subjects (RPPX or placebo, blinded)): 46%
subjects with mild dizziness (most frequent AE) (healthy adult volunteers [11]; all subjects (RPPX or placebo, blinded)): 21%
CL/F (healthy adult volunteers [11]; single oral 50 mg, fasted): 706 ± 182 (6) mL/min
Fe (healthy adult volunteers [11]; single oral 50 mg, fasted): 70.7 ± 10.4 (6) % Dose
Ue (healthy adult volunteers [11]; single oral 50 mg, fasted): 35.3 ± 5.19 (6) mg
λZ (healthy adult volunteers [11]; single oral 50 mg, fasted): 0.1064 ± 0.0171 (6) h^−1
CL/F (healthy adult volunteers [11]; single oral 150 mg, fasted): 692 ± 183 (5) mL/min
Fe (healthy adult volunteers [11]; single oral 150 mg, fasted): 40.3 ± 4.69 (6) % Dose
Ue (healthy adult volunteers [11]; single oral 150 mg, fasted): 60.5 ± 7.04 (6) mg
λZ (healthy adult volunteers [11]; single oral 150 mg, fasted): 0.1001 ± 0.0087 (5) h^−1
CL/F (healthy adult volunteers [11]; single oral 150 mg, fed): 774 ± 165 (6) mL/min
λZ (healthy adult volunteers [11]; single oral 150 mg, fed): 0.1152 ± 0.0256 (6) h^−1
CL/F (healthy adult volunteers [11]; single oral 300 mg, fasted): 659 ± 260 (6) mL/min
Fe (healthy adult volunteers [11]; single oral 300 mg, fasted): 65.8 ± 9.33 (6) % Dose
Ue (healthy adult volunteers [11]; single oral 300 mg, fasted): 198 ± 28.0 (6) mg
λZ (healthy adult volunteers [11]; single oral 300 mg, fasted): 0.1151 ± 0.0309 (6) h^−1
Cmax (clinical [12]; 50 mg): 125 ± 22 ng/mL
Tmax (clinical [12]; 50 mg): 2.04 h
Cmax (clinical [12]; 150 mg): 360 ± 60.4 ng/mL
Tmax (clinical [12]; 150 mg): 2.04 h
Cmax (clinical [12]; 300 mg): 781 ± 158 ng/mL
Tmax (clinical [12]; 300 mg): 1.96 h
